Tests used:
LoVo-Dox = assay: Inhibition of cells growth by colorimetric assay (SRB), LoVo-Dox; format: cell-based; conditions: SRB, 48 hours exposure
In short: (§1)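 48 h SRB cytotoxicity assay; compound range 10–10^−8 μg/ml; seeding 5×10^3 cells/well, 18 h pre-attachment; OD 490 nm; GI, TGI, LC from triplicate means ± SD.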

LoVo = assay: Inhibition of cells growth by colorimetric assay (SRB), LoVo; format: cell-based; conditions: SRB, 48 hours exposure
In short: as §1

HT-29 = assay: Inhibition of cells growth by colorimetric assay (SRB), HT-29; format: cell-based; conditions: SRB, 48 hours exposure
In short: as §1

IGROV-1 = assay: Inhibition of cells growth by colorimetric assay (SRB), IGROV-1; format: cell-based; conditions: SRB, 48 hours exposure
In short: as §1

SK-BR-3 = assay: Inhibition of cells growth by colorimetric assay (SRB), SK-BR-3; format: cell-based; conditions: SRB, 48 hours exposure
In short: as §1

HMEC1 = assay: Inhibition of cells growth by colorimetric assay (SRB), HMEC1; format: cell-based; conditions: SRB, 48 hours exposure
In short: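 Cells in RPMI 1640 with 10% FBS were seeded at 5×10^3 per well, allowed 18 h to attach, then exposed to compound (10 to 10^−8 μg/ml, in DMSO/EtOH/PBS 0.5:0.5:99) for 48 h. After TCA fixation and SRB staining, bound dye was solubilized in Tris and OD read at 490 nm; GI, TGI and LC derived from triplicates.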

SK-OV-3 = assay: Inhibition of cells growth by colorimetric assay (SRB), SK-OV-3; format: cell-based; conditions: SRB, 48 hours exposure
In short: as §1

DU-145 = assay: Inhibition of cells growth by colorimetric assay (SRB), DU-145; format: cell-based; conditions: SRB, 48 hours exposure
In short: as §1

LNCaP = assay: Inhibition of cells growth by colorimetric assay (SRB), LNCaP; format: cell-based; conditions: SRB, 48 hours exposure
In short: as §1

A-549 = assay: Inhibition of cells growth by colorimetric assay (SRB), A-549; format: cell-based; conditions: SRB, 48 hours exposure
In short: as §1

IGROV-ET = assay: Inhibition of cells growth by colorimetric assay (SRB), IGROV-ET; format: cell-based; conditions: SRB, 48 hours exposure
In short: as §1

PANC-1 = assay: Inhibition of cells growth by colorimetric assay (SRB), PANC-1; format: cell-based; conditions: SRB, 48 hours exposure
In short: as §1

K-562 = assay: Inhibition of cells growth by colorimetric assay (SRB), K-562; format: cell-based; conditions: SRB, 48 hours exposure
In short: as §1

SK-MEL-28 = assay: Inhibition of cells growth by colorimetric assay (SRB), SK-MEL-28; format: cell-based; conditions: SRB, 48 hours exposure
In short: as §1

From the text for Heart: (§2) Toxicity was asssessed by the methods reported in Toxicology in Vitro, 15 (2001) 571-577, J. Luber Narod et al.: “Evaluation of the use of in vitro methodolodies as tools for screening new compounds for potential in vivo toxicity”.
From the text for Kidney: as §2
From the text for Liver: as §2
From the text for Myelo: as §2
From the text for Skeletal: as §2

COc1cc2c(cc1OC)[C@@]1(CS[C@@H]3c4c(OC(C)=O)c(C)c5c(c4[C@H](COC1=O)N1C3[C@H]3c4c(cc(C)c(OC)c4OC)C[C@@H]([C@@H]1O)N3C)OCO5)NCC2 (some centres unmarked) [Compound 87]
GI50 (LoVo-Dox; Homo sapiens, 48 h, LOVO-DOX, read-out: LOVO-DOX GI50): 38.7 nM | CC50 (LoVo-Dox; Homo sapiens, 48 h, read-out: LOVO-DOX LC50, LOVO-DOX): 12.7 µM | LOVO-DOX TGI (LoVo-Dox; LOVO-DOX): 1.42E-07 | GI50 (LoVo; Homo sapiens, LoVo, 48 h, LOVO, read-out: LOVO GI50): 22.7 nM | LC50 (concentration for 50% cell killing) (LoVo; Homo sapiens, LoVo, 48 h, read-out: LOVO LC50, LOVO): 123 nM | LOVO TGI (LoVo; LOVO): 5.27E-08 | HT-29 TGI (HT-29; HT-29): 1.12E-07 | GI50 (HT-29; Homo sapiens, HT-29, 48 h, HT-29, read-out: HT-29 GI50): 24.4 nM | LC50 (concentration for 50% cell killing) (HT-29; Homo sapiens, HT-29, 48 h, read-out: HT-29 LC50, HT-29): 380 nM | Toxicity Data Skeletal (Skeletal): 2.00E-07 | GI50 (IGROV-1; Homo sapiens, IGROV-1, 48 h, IGROV, read-out: IGROV GI50): 4.8 nM | CC50 (IGROV-1; Homo sapiens, IGROV-1, 48 h, read-out: IGROV LC50, IGROV): 80.4 nM | IGROV TGI (IGROV-1; IGROV): 1.63E-08 | GI50 (SK-BR-3; Homo sapiens, SK-BR-3, 48 h, SK-BR3, read-out: SK-BR3 GI50): 16.5 nM | CC50 (SK-BR-3; Homo sapiens, SK-BR-3, 48 h, read-out: SK-BR3 LC50, SK-BR3): 101 nM | SK-BR3 TGI (SK-BR-3; SK-BR3): 4.08E-08 | HMEC-1 TGI (HMEC1; HMEC-1): 9.65E-08 | GI50 (HMEC1; Homo sapiens, HMEC-1, 48 h, HMEC-1, read-out: HMEC-1 GI50): 16.7 nM | LC50 (HMEC1; Homo sapiens, HMEC-1, 48 h, read-out: HMEC-1 LC50, HMEC-1): 12.7 µM | GI50 (SK-OV-3; Homo sapiens, SK-OV-3, 48 h, SK-OV3, read-out: SK-OV3 GI50): 21.6 nM | LC50 (SK-OV-3; Homo sapiens, SK-OV-3, 48 h, read-out: SK-OV3 LC50, SK-OV3): 8.99 µM | SK-OV3 TGI (SK-OV-3; SK-OV3): 6.56E-08 | DU-145 TGI (DU-145; DU-145): 5.22E-08 | GI50 (DU-145; Homo sapiens, DU-145, 48 h, DU-145, read-out: DU-145 GI50): 13.5 nM | CC50 (DU-145; Homo sapiens, DU-145, 48 h, read-out: DU-145 LC50, DU-145): 180 nM | Toxicity Data Heart (Heart): 3.60E-08 | GI50 (LNCaP; Homo sapiens, LNCaP, 48 h, read-out: LNCAP GI50, LNCAP): 4.73 nM | CC50 (LNCaP; Homo sapiens, LNCaP, 48 h, read-out: LNCAP LC50, LNCAP): 40.5 nM | LNCAP TGI (LNCaP; LNCAP): 1.12E-08 | Toxicity Data Myelo (Myelo): 2.44E-07 | TGI A-549 (A-549; A-549): 4.77E-08 | GI50 (A-549; Homo sapiens, A549, 48 h, A-549, read-out: GI50 A-549): 23.8 nM | LC50 (concentration for 50% cell killing) (A-549; Homo sapiens, A549, 48 h, read-out: A-549 LC50, A-549): 95.8 nM | GI50 (IGROV-ET; Homo sapiens, 48 h, IGROV-ET, read-out: IGROV-ET GI50): 28.4 nM | CC50 (IGROV-ET; Homo sapiens, 48 h, read-out: IGROV-ET LC50, IGROV-ET): 5.84 µM | IGROV-ET TGI (IGROV-ET; IGROV-ET): 7.77E-08 | Toxicity Data Kidney (Kidney): 8.09E-08 | GI50 (PANC-1; Homo sapiens, PANC-1, 48 h, PANC-1, read-out: PANC-1 GI50): 25.3 nM | LC50 (concentration for 50% net cell kill) (PANC-1; Homo sapiens, PANC-1, 48 h, read-out: PANC-1 LC50, PANC-1): 876 nM | PANC-1 TGI (PANC-1; PANC-1): 7.39E-08 | GI50 (K-562; Homo sapiens, K562, 48 h, K-562, read-out: K-562 GI50): 0.871 nM | LC50 (50% cell killing) (K-562; Homo sapiens, K562, 48 h, read-out: K-562 LC50, K-562): 7.15 nM | K-562 TGI (K-562; K-562): 2.96E-09 | Toxicity Data Liver (Liver): 6.18E-08 | GI50 (SK-MEL-28; Homo sapiens, SK-MEL-28, 48 h, MEL-28, read-out: MEL-28 GI50): 19.2 nM | CC50 (SK-MEL-28; Homo sapiens, SK-MEL-28, 48 h, read-out: MEL-28 LC50, MEL-28): 109 nM | MEL-28 TGI (SK-MEL-28; MEL-28): 4.57E-08

From patent US7759345B2, “Antitumoral derivatives of ET-743” (priority 2001, dated 2010)
